# Patent US20240050466A1, “CELLULAR HEALTH NUTRITIONAL PRODUCT” (GLAXOSMITHKLINE CONSUMER HEALTHCARE HOLDINGS (US) LLC, priority 2020, published 2024)
# Legend:
# [1] = Summary of bioefficacy, plausibility and criticality of micronutrients in F2; details: grade Low/medium/High, key not given
# Excerpt: Summary Table of Bioefficacy, Plausibility and Criticality of Micronutrients in F2
# gene expression = details: hesperidin intake in humans; cited from earlier work
# [2] = in vivo, cited from earlier work
# [3] = cited from earlier work
Compound,Bioefficacy [1],other results
"COc1ccc([C@@H]2CC(=O)c3c(O)cc(O[C@@H]4O[C@H](CO[C@@H]5O[C@@H](C)[C@H](O)[C@@H](O)[C@H]5O)[C@@H](O)[C@H](O)[C@H]4O)cc3O2)cc1O [Hesperidin, hesperidin]",medium,"number of genes whose expression is modulated (gene expression): about 1,819 genes"
Vitamin E,Low,
"O=C1O[C@H]([C@@H](O)CO)C(O)=C1O [Vitamin C, ascorbic acid]",medium,
"C[Se]CC[C@H](N)C(=O)O [Selenium, selenomethionine]",medium,reference dose (RfD) or NOAEL for Se ([2]; human): 350 µg/day; reference dose (RfD) or NOAEL for Se per body weight [2]: 5 ug Se/(kg body per day)
CC(=O)Oc1c(C)c(C)c2c(c1C)CCC(C)(CCC[C@H](C)CCC[C@H](C)CCCC(C)C)O2 (stereo partly drawn) [RRRDL-alpha-Tocopherol Acetate],,safe upper limit for adults [3]: 273 mg/day
"CC1=C[C@H](O)CC(C)(C)[C@H]1/C=C/C(C)=C/C=C/C(C)=C/C=C/C=C(C)/C=C/C=C(C)/C=C/C1=C(C)C[C@@H](O)CC1(C)C [Lutein, trans-lutein]",medium,
"CC(C)=CCC/C(C)=C/C=C/C(C)=C/C=C/C(C)=C/C=C/C=C(C)/C=C/C=C(C)/C=C/C=C(\C)CCC=C(C)C [Lycopene, lycopene]",High,
"NCCC(=O)N[C@@H](Cc1cnc[nH]1)C(=O)O [Carnosine, L-Carnosine]",Low,
